Source: ChEMBL document CHEMBL3046632 (Med Chem Res, 2004)

What was measured:
D(3) dopamine receptor = D(3) dopamine receptor (Rattus norvegicus, UniProt P19020); test: biochemical
[1] = biological target: Dopamine receptor D2 and D3 (Rattus norvegicus, UniProt P19020+P61169); test: Agonist activity at Rattus norvegicus (rat) dopamine D2/D3 receptor transfected in african green monkey COS7 cells assessed as inhibition of forskolin-stimulated adenylyl cyclase activity after 10 min; type: functional, cell-based; conditions: cos-7
D(2) dopamine receptor = D(2) dopamine receptor (Rattus norvegicus, UniProt P61169); test: Agonist activity at Rattus norvegicus (rat) dopamine D2 receptor transfected in african green monkey COS7 cells assessed as inhibition of forskolin-stimulated adenylyl cyclase activity after 10 min; type: functional, cell-based, COS-7
Sequence of D(2) dopamine receptor (P61169 whole entry): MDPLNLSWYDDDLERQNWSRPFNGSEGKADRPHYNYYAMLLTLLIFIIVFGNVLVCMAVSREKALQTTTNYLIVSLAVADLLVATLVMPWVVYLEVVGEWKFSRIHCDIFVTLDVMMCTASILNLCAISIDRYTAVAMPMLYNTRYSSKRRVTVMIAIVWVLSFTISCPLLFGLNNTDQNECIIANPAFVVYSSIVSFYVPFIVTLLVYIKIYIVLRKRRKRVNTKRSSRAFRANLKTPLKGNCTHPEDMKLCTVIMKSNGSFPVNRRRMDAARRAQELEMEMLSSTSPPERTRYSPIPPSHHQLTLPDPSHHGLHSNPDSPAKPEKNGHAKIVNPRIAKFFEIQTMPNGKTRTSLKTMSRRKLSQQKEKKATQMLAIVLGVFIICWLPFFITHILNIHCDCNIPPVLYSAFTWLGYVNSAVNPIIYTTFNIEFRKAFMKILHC

Sequence of D(3) dopamine receptor (P19020 whole entry): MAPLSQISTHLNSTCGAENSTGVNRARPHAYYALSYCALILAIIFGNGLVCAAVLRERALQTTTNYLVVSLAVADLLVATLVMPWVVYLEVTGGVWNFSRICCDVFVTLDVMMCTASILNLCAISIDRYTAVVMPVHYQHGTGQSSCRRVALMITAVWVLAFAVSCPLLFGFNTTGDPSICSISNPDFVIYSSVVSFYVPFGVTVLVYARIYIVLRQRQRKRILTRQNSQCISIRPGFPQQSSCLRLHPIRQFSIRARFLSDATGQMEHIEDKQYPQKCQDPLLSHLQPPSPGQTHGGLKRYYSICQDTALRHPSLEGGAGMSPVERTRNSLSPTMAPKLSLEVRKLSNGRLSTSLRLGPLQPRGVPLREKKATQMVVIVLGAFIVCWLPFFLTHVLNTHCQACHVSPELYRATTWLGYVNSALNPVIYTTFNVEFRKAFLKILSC

Row | Ki (D(3) dopamine receptor) [nM] | EC50 [1] [nM] | SMILES | EC50 (D(2) dopamine receptor) [nM] | IC50 (D(3) dopamine receptor) [nM]
1 | 2.42 |  | N#Cc1ccc2c(c1)[C@H]1CN(CCCCNC(=O)c3ccc(-c4ccccc4)cc3)C[C@@H]1CO2 |  | 
2 |  | 1.5 | CCCN1CCO[C@@H]2c3cc(C(N)=O)ccc3CC[C@H]21 (relative stereo) | 49.5 | 4.13
3 |  |  | CCCN[C@H]1CCc2nc(N)sc2C1 [PRAMIPEXOLE] |  | 7.8
4 |  |  | CCCN(CCC)CCc1cccc2c1CC(=O)N2 [ROPINIROLE] | 75.5 | 
